Here are results for one compound from US20170304329A1 (THE UNIVERSITY OF KANSAS, priority 2014, published 2017).

The structures appear in SMILES notation.

What all share (format): cell-based, human
The subject of test [1] is 253-JBV bladder cancer cells. Kind of test: Clonogenicity assay. The conditions noted are these: 48 h treatment, then 10 days. The protocol: (§1) We next determined the long-term effect of ciclopirox (CPX) on bladder cancer cells using the clonogenicity assay. For this assay, 6-well plates were seeded with 500 viable cells and were allowed to grow for overnight. The cells were then incubated in the presence or absence of various concentrations (1 and 5 μM) of CPX for 48 h. The CPX containing medium was then removed, and the cells were washed in PBS and incubated for an additional 10 days in complete medium. Each treatment was done in triplicate. The colonies obtained were washed with PBS and fixed in 10% formalin for 10 min at room temperature and then washed with PBS followed by staining with crystal violet. The colonies were compared to untreated cells.
(§2) The fresh medium was replaced and allowed to grow for 10 days. The colonies were stained with crystal violet and compared to untreated cells.

For test [2], the system named is T24 bladder cancer cells. Put plainly: Clonogenicity assay. Conditions: 48 h treatment, then 10 days. The protocol:
as §1, §2

In test [3] the test system is 253JBV bladder cancer cell spheroids. Put plainly: Spheroid (bladdosphere) assay. The conditions noted are these: I generation, 7 days. The source says: (§3) The spheroid assay, which is sometimes also called the 3D assay was developed as a method to propagate epithelial stem cells in vitro, and is now a standard surrogate reporter for stem cell activity. The assay (in this case called bladdosphere assay) is based on the hypothesis that the unique, undifferentiated cells present in bladder cancers will survive in suspension culture, while the other cells will die by anoikis. Therefore, we characterized the effect of ciclopirox (CPX) in bladdosphere assay. Here, cancer cells are plated in ultra-low binding plates and the resulting spheroids are believed to represent growth from stem cells.
(§4) For formation of spheroids, cells were cultured in RPMI 1640 (Mediatech) supplemented with 20 ng/mL bFGF (Invitrogen) 10 mL per 500 mL of 50×B27 supplement (Invitrogen) EGF 20 ng/mL (Invitrogen) and antibiotic and antimycotic solution. Cells were seeded at low densities (5000 cells/mL) in 6-well low adhesion plates. The cells were treated with increasing concentrations of CPX (0.5×, 1×, and 2× of IC50 calculated from cell proliferation assay—2 μM for 253JBV and 4 μM for T24). After 7 days the spheroids were photographed (I generation). Control spheroids and spheroids treated with CPX (1×IC50) were collected, trypsinized and re-plated for the secondary spheroid growth (II generation), followed by tertiary spheroid development (III generation).

The subject of test [4] is T24 bladder cancer cell spheroids. Kind of test: Spheroid (bladdosphere) assay. Conditions: I generation, 7 days.
Description: as §3, §4

Another test concerns 253JBV cells. Put plainly: Cell proliferation, hexosaminidase assay. The conditions noted are these: for IC50: 48 h. The protocol:
(§5) To determine the effect of CPX on bladder cancer cell proliferation in T24 (MIBC) and 253-JBV (NMIBC) cells, 5,000 cells per well were seeded on to 96-well plates and grown overnight. The cells were then treated with increasing doses of CPX in RPMI media containing 10% FBS. Analysis of cell proliferation after the treatment period was estimated by the hexosaminidase assay. Briefly, the medium was removed and hexosaminidase substrate solution in citrate buffer pH 5 (7.5 mM), p-nitrophenol-N-acetyl-beta-D-glucosaminidase (Sigma Aldrich) was added at 75 μL per well. The plate was incubated at 37° C. in 100% humidity for 30 minutes. The reaction was stopped with 112.5 μL of 50 mM glycine containing 5 mM of EDTA (pH 10.4). The absorbance was measured at 405 nm. Experiments were conducted at n=6, and then repeated at least three times. The data were analyzed as percent of control, where the control wells were treated with equivalent amounts of DMSO alone. For IC50 calculations, a plot between the drug concentration and hexosaminidase activity was generated and the data was fitted either linearly or exponentially. The best fit was used for further processing of data.
(§6) We determined and compared the effect of CPX with CPX-POM and CPX-glucuronide in vitro by performing proliferation assay. To determine the effect of CPX, CPX-POM and CPX-glucuronide on bladder cancer cell proliferation in T24 (MIBC) and 253-JBV (NMIBC) cells, 5,000 cells per well were seeded on to 96-well plates and grown overnight. The cells were then treated with increasing doses of CPX, CPX-POM and CPX-glucuronide in RPMI media containing 10% FBS. Analysis of cell proliferation after the treatment period was estimated by the hexosaminidase assay. Briefly, the medium was removed and hexosaminidase substrate solution in citrate buffer pH 5 (7.5 mM), p-nitrophenol-N-acetyl-beta-D-glucosaminidase (Sigma Aldrich) was added at 75 μL per well. The plate was incubated at 37° C. in 100% humidity for 30 minutes. The reaction was stopped with 112.5 μL of 50 mM glycine containing 5 mM of EDTA (pH 10.4). The absorbance was measured at 405 nm.
(§7) Experiments were conducted at n=6, and then repeated at least three times. The data were analyzed as percent of control, where the control wells were treated with equivalent amounts of DMSO alone. For IC50 so calculations, a plot between the drug concentration and hexosaminidase activity was generated and the data was fitted either linearly or exponentially.

For the next test, the system named is T24 cells. Kind of test: Cell proliferation, hexosaminidase assay. The protocol: as §5, §6, §7
Test [5] has as its system T24 bladder cancer cells. Kind of test: Annexin V-FITC apoptosis labeling. Conditions: 4 μM, up to 48 h. The protocol: It was determined that CPX induces apoptosis. We next determined whether the compounds could induce cell death through the apoptotic pathway. For this we treated T24 bladder cancer cells with CPX (4 μM) and labeled the cells with FITC conjugated Annexin V to detect apoptotic cells. […] Cells were incubated with the indicated dose of compound for up to 48 h.

The IC50 is the concentration needed to halve the response being measured. A higher IC50 goes with lower potency. As for `Cc1cc(C2CCCCC2)n(O)c(=O)c1` [CPX, 6-cyclohexyl-1-hydroxy-4-methylpyridin-2(1H)-one], the colony formation entry in test [1] was “inhibited the number and size of colonies compared to control”; with T24 bladder cancer cells [2], “inhibited the number and size of colonies compared to control”. Also, the spheroid formation entry was “significant decrease in size and number of spheroids” in test [3]; “significant decrease in size and number of spheroids” in test [4]. Further, the IC50 with 253JBV cells came out at 3000 nM; in the test with 253JBV cells (Homo sapiens) it was 2000 nM; in the test with T24 cells (Homo sapiens, T-24, 48 h, 48 h), 4000 nM. Also, the “effect on cell proliferation” value with 253JBV cells (up to 72 h) was “significant dose- and time-dependent decrease in cell proliferation”; in the test with T24 cells (up to 72 h), “significant dose- and time-dependent decrease in cell proliferation”. Also, the “cell death (Annexin V-FITC labeled cells)” value with T24 bladder cancer cells [5] was “significant increase in cell death”.
